Measured values: patent publication US20260285880A1, “SUBSTITUTED DIHYDROTHIENOPYRIMIDINE COMPOUND, PREPARATION METHOD THEREFOR, AND USE THEREOF” (SHANGHAI YIDI BIOTECHNOLOGY CO., LTD., priority 2023, published 2026)

Assays:
PDE4D2 = PDE4D2 (Homo sapiens, UniProt Q08499); experiment: PDE4D2 enzyme experiment (AMP-Glo); details: read-out: PDE4D2 IC50 Binding; enzyme assay
Experimental: All compounds were dissolved in DMSO into 10 mM or 20 mM stock solutions. The compound to be tested was diluted with DMSO in a 3-fold gradient. 20 nL/well of the compound or a DMSO control was transferred to a 384-well plate by using Echo 550 instrument. The plate was sealed with a membrane and centrifuged for 1 minute. A 2× enzyme solution was prepared with an assay buffer, and 2 uL/well of the 2× enzyme solution was added, followed by equilibration at room temperature for 10 minutes. A 2× Cyclic-3′,5′-AMP substrate solution was prepared with an assay buffer, and 2 uL/well of the 2× substrate solution was added, followed by incubation at room temperature for 60 minutes. 4 μL of AMP-glo reagent was added, followed by incubation at room temperature for 60 minutes. 8 ul of an AMP detection solution was added, followed by incubation at room temperature for 60 minutes. An RLU value was read on Envision 2105 plate reader. The RLU value represents the concentration of the product AMP. Inhibition rate %=(1−(RLUpositive control−RLUcomnpound)/(RLUpositive control−RLUnegative control))*100. The IC50 value was then calculated by Graphpad 8.0 software using Y=Bottom+(Top−Bottom)/(1+10^((LogIC50−X)*HillSlope)).

Flpin-293-PDE4B2 cells = Flpin-293-PDE4B2 cells (Homo sapiens, UniProt Q07343); experiment: cell-based; details: for inhibition at 0.001 µM: read-out: Cell Inhibition % @1 nM, 1 nM, Flpin-293-PDE4B2 cells; for inhibition at 0.01 µM: read-out: Cell Inhibition % @10 nM, 10 nM, Flpin-293-PDE4B2 cells; for inhibition at 0.1 µM: read-out: Cell Inhibition % @100 nM, 100 nM, Flpin-293-PDE4B2 cells
Experimental: All compounds were dissolved in DMSO into 10 mM or 20 mM stock solutions. The compound to be tested was diluted with DMSO with a 3-fold gradient. […] 40 nL/well of the compound or a DMSO control was transferred to a 384-well plate by using Echo 550 instrument. […] The plate was incubated at 37° C. for 30 minutes. Eu-cAMP tracer and Ulight-anti-cAMP were frozen and thawed and diluted in a lysis buffer. 10 of μl Eu-cAMP tracer was added to an experimental well, and 10 μl of Ulight-anti-cAMP was added to the experimental well. The reaction plate was centrifuged at 200 g at room temperature for 30 s and then left to stand at 25° C. for 1 h, and data was then collected by Envision. Inhibition %=100−(Signal compound−SignalAve positive control)/(SignalAve negative control−SignalAve positive control)×100.

PDE4B2 = PDE4B2 (Homo sapiens, UniProt Q07343); details: read-out: PDE4B2 IC50; enzyme assay
PDE4B2, sequence (Q07343 1-564 isoform Q07343-2, species assumed): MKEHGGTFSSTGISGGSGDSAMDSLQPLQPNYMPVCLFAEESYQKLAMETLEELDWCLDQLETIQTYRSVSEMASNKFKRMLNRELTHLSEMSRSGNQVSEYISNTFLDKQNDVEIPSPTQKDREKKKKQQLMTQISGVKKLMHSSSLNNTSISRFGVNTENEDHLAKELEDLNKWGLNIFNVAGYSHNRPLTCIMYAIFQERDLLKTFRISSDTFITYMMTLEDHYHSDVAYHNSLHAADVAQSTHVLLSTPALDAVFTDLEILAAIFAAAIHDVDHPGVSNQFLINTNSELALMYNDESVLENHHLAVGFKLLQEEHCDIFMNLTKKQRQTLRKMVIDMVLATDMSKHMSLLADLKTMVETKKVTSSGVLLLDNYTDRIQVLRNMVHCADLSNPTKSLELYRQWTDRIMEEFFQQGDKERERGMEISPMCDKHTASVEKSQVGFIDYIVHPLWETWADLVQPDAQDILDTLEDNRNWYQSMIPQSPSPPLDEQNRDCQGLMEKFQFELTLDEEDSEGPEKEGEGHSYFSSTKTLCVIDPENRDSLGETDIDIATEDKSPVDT

Flpin-293-PDE4B2 cells, sequence (Q07343 1-564 isoform Q07343-2): as the sequence (Q07343 1-564 isoform Q07343-2, species assumed) above
PDE4D2, sequence (Q08499 303-809 limits assumed): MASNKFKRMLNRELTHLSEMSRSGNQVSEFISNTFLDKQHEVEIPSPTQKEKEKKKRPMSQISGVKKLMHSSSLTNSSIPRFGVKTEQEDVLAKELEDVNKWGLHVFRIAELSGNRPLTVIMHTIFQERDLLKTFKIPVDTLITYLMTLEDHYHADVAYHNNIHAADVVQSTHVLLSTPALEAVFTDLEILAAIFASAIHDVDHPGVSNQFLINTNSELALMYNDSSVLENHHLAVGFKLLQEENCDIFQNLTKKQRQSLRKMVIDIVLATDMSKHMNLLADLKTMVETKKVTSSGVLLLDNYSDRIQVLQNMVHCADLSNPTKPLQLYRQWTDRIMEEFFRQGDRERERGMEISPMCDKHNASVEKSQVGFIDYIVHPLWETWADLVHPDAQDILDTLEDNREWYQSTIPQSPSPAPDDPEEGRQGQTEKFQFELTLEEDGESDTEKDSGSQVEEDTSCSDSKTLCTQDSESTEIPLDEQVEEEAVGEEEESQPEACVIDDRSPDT

Compound | IC50 (PDE4D2) [pM] | inhibition at 0.001 µM (Flpin-293-PDE4B2 cells) [%] | inhibition at 0.01 µM (Flpin-293-PDE4B2 cells) [%] | inhibition at 0.1 µM (Flpin-293-PDE4B2 cells) [%] | IC50 (PDE4B2) [pM]
Cn1cc(CNc2nc(N3CCc4cc(N5CCCC5)ccc4C3)nc3c2[S+]([O-])CC3)cn1 (stereo not shown) [Compound 190] | 572 | 3.93 | 47.1 | 96.7 | 168
CN1C[C@@H]2CCN(c3ccc4c(c3)CCN(c3nc5c(c(NC6(CO)CCC6)n3)[S+]([O-])CC5)C4)[C@@H]2C1 (stereo partly shown) [Compound 162] | 584 | 10.7 | 52.8 | 93.8 | 589
O=S1(=O)C[C@H]2C[C@@H]1CN2c1ccc2c(c1)CCN(c1nc3c(c(NC4(CO)CCC4)n1)[S+]([O-])CC3)C2 (stereo partly shown) [Compound 163] | 300 | 11.9 | 56.7 | 96.7 | 170
[O-][S+]1CCc2nc(N3CCc4cc(N5CC[C@@H](F)C5)ccc4C3)nc(NC3(CO)CCC3)c21 (stereo partly shown) [Compound 150] | 694 | 11.8 | 49.6 | 97.5 | 418
CN1CC(Nc2nc(N3CCc4cc(Cl)ccc4C3)nc3c2[S+]([O-])CC3)CCC1=O (stereo not shown) [Compound 136] | 82.5 | 48.1 | 98.3 | 101 | 40.7
[O-][S+]1CCc2nc(N3CCc4cc(N5C[C@H]6C[C@@H]5CO6)ccc4C3)nc(NC3(CO)CCC3)c21 (stereo partly shown) [Compound 153] | 520 | 10.2 | 76.8 | 99.9 | 182
[O-][S+]1CCc2nc(N3CCc4cc(N5CCCC5)ccc4C3)nc(Nc3cn[nH]c3)c21 (stereo not shown) [Compound 194] | 1080 | 4.28 | 33.6 | 92.9 | 333
[O-][S+]1CCc2nc(N3CCc4cc(Cl)ccc4[C@H]3C3CC3)nc(NC3(CO)CCC3)c21 (stereo partly shown) [Compound 125] | 1980 | 2.85 | 21.8 | 90.6 | 968
[O-][S+]1CCc2nc(N3CCc4cc(N5CCC[C@H]5CO)ccc4C3)nc(NC3(CO)CCC3)c21 (stereo partly shown) [Compound 132] | 651 | 16.2 | 78.6 | 102 | 368
[O-][S+]1CCc2nc(N3CCc4cc(N5CC6CC5C6)ccc4C3)nc(NC3(CO)CCC3)c21 (stereo not shown) [Compound 177] | 502 | 7.25 | 53.3 | 98.6 | 508
C[C@H]1c2ccc(N3CCCC3)cc2CCN1c1nc2c(c(Nc3cnn(C4COC4)c3)n1)[S+]([O-])CC2 (stereo partly shown) [Compound 208] | 766 |  |  |  | 220
CC1(O)CCN(c2ccc3c(c2)CCN(c2nc4c(c(NC5(CO)CCC5)n2)[S+]([O-])CC4)C3)C1 (stereo not shown) [Compound 175] | 603 | 6.9 | 59.4 | 98.4 | 299
C[C@@H]1Cc2cc(Cl)ccc2CN1c1nc2c(c(NC3(CO)CCC3)n1)[S+]([O-])CC2 (stereo partly shown) [Compound 121] | 48200 | 0.4 | 10 | 29.4 | 13500
COc1nn(C)cc1Nc1nc(N2CCc3cc(N4CCCC4)ccc3[C@@H]2C)nc2c1[S+]([O-])CC2 (stereo partly shown) [Compound 216] | 750 | 11.7 | 50.4 | 98.2 | 227
CN(C)C1CCN(c2ccc3c(c2)CCN(c2nc4c(c(NC5(CO)CCC5)n2)[S+]([O-])CC4)C3)C1 (stereo not shown) [Compound 148] | 1100 | 3.99 | 37.3 | 92.1 | 700
[O-][S+]1CCc2nc(N3CCc4cc(N5CC6C(C5)C6(F)F)ccc4C3)nc(NC3(CO)CCC3)c21 (stereo not shown) [Compound 161] | 824 | 3.1 | 37.3 | 96.3 | 670
C[C@@H]1c2ccc(Br)cc2CCN1c1nc2c(c(NC3(CO)CCC3)n1)[S+]([O-])CC2 (stereo partly shown) [Compound 124] | 2920 | 8.7 | 42.6 | 97.3 | 980
[O-][S+]1CCc2nc(N3CCc4cc(N5CC[C@@H](CO)C5)ccc4C3)nc(NC3(CO)CCC3)c21 (stereo partly shown) [Compound 131] | 333 | 16.6 | 76 | 98.7 | 147
CO[C@@H]1CCN(c2ccc3c(c2)CCN(c2nc4c(c(NC5(CO)CCC5)n2)[S+]([O-])CC4)C3)C1 (stereo partly shown) [Compound 152] | 748 | 16.1 | 66 | 99.2 | 426
[O-][S+]1CCc2nc(N3CCc4cc(N5CC[C@@H](O)C5)ccc4C3)nc(NC3(CO)CCC3)c21 (stereo partly shown) [Compound 130] | 590 | 11.8 | 57.9 | 100 | 297

Compound | IC50 (PDE4D2) [pM] | inhibition at 0.001 µM (Flpin-293-PDE4B2 cells) [%] | inhibition at 0.01 µM (Flpin-293-PDE4B2 cells) [%] | inhibition at 0.1 µM (Flpin-293-PDE4B2 cells) [%] | IC50 (PDE4B2) [pM]
[O-][S+]1CCc2nc(N3CCc4cc(N5C[C@@H]6[C@@H](CO)[C@@H]6C5)ccc4C3)nc(NC3(CO)CCC3)c21 (stereo partly shown) [Compound 174] | 231 |  |  |  | 197
CN1C[C@@H](Nc2nc(N3CCc4cc(N5CCCC5)ccc4C3)nc3c2[S+]([O-])CC3)CCC1=O (stereo partly shown) [Compound 185] | 26.3 | 75.3 | 100 | 101 | 25.1
[O-][S+]1CCc2nc(N3CCc4cc(N5CCOCC5)ccc4C3)nc(NC3(CO)CCC3)c21 (stereo not shown) [Compound 144] | 697 | 7.35 | 51.4 | 98.6 | 440
[O-][S+]1CCc2nc(N3CCc4cc(N5CCCC5)ccc4C3)nc(NC3CCOCC3)c21 (stereo not shown) [Compound 189] | 145 | 24.4 | 93.5 | 101 | 66
[O-][S+]1CCc2nc(N3CCc4cc(N5CCC6(CC5)COC6)ccc4C3)nc(NC3(CO)CCC3)c21 (stereo not shown) [Compound 166] | 453 | 9.23 | 61.6 | 98.2 | 457
C[C@@H]1CCCN1c1ccc2c(c1)CCN(c1nc3c(c(NC4(CO)CCC4)n1)[S+]([O-])CC3)C2 (stereo partly shown) [Compound 133] | 1560 | 10.5 | 33 | 94.2 | 515
C[C@H]1CCCN1c1ccc2c(c1)CCN(c1nc3c(c(NC4(CO)CCC4)n1)[S+]([O-])CC3)C2 (stereo partly shown) [Compound 134] | 240 | 19.2 | 86.8 | 101 | 98
[O-][S+]1CCc2nc(N3CCc4cc(N5CCC(F)C5)ccc4C3)nc(NC3(CO)CCC3)c21 (stereo not shown) [Compound 149] | 1080 | 5.99 | 38.3 | 96 | 430
C[C@H]1Cc2cc(Cl)ccc2CN1c1nc2c(c(NC3(CO)CCC3)n1)[S+]([O-])CC2 (stereo partly shown) [Compound 122] | 2040 | 5.4 | 49.9 | 96.8 | 838
[O-][S+]1CCc2nc(N3CCc4cc(N5CCCC5)ccc4C3)nc(NCCO)c21 (stereo not shown) [Compound 198] | 1800 | 18.1 | 67.4 | 97.7 | 608
[O-][S+]1CCc2nc(N3CCc4cc(N5CCCC5)ccc4C3)nc(NC3(CO)CC3)c21 (stereo not shown) [Compound 186] | 155 | 24.7 | 93.2 | 101 | 64.6
[O-][S+]1CCc2nc(N3CCc4cc(N5CC6CC6C5)ccc4C3)nc(NC3(CO)CCC3)c21 (stereo not shown) [Compound 145] | 985 | 4.25 | 36 | 95.9 | 245
N#CC1CCN(c2ccc3c(c2)CCN(c2nc4c(c(NC5(CO)CCC5)n2)[S+]([O-])CC4)C3)C1 (stereo not shown) [Compound 159] | 389 | 16.8 | 73.4 | 99.6 | 224
CO[C@H]1CCN(c2ccc3c(c2)CCN(c2nc4c(c(NC5(CO)CCC5)n2)[S+]([O-])CC4)C3)C1 (stereo partly shown) [Compound 151] | 655 | 7.66 | 56.5 | 99.1 | 298
COc1nn(C)cc1Nc1nc(N2CCc3cc(N4CCCC4)ccc3C2)nc2c1[S+]([O-])CC2 (stereo not shown) [Compound 193] | 1280 | 4.88 | 38.2 | 96 | 418
(R)-2-(7-fluoro-6-(pyrrolidin-1-yl)-3,4-dihydroisoquinolin-2(1H)-yl)-4-((1-(hydroxymethyl)cyclobutyl)amino)-6,7-dihydrothieno[3,2-d]pyrimidine 5-oxide [Compound 181] | 876 |  |  |  | 
Cn1cnc(Nc2nc(N3CCc4cc(N5CCCC5)ccc4C3)nc3c2[S+]([O-])CC3)c1 (stereo not shown) [Compound 197] | 23800 |  |  |  | 13300
C[C@H]1c2ccc(N3CCCC3)cc2CCN1c1nc2c(c(Nc3cnn(CCO)c3)n1)[S+]([O-])CC2 (stereo partly shown) [Compound 210] | 1200 |  |  |  | 
[O-][S+]1CCc2nc(N3CCc4nc(N5CCCC5)sc4C3)nc(NC3(CO)CCC3)c21 (stereo not shown) [Compound 195] | 1120 |  |  |  | 956
